Data on two molecules can be found in article PMC11489226 (Archives of Toxicology, 2024).

The target of one data set is T1, CYP1A2 (Homo sapiens, UniProt P05177).
T1 sequence (P05177 1-516): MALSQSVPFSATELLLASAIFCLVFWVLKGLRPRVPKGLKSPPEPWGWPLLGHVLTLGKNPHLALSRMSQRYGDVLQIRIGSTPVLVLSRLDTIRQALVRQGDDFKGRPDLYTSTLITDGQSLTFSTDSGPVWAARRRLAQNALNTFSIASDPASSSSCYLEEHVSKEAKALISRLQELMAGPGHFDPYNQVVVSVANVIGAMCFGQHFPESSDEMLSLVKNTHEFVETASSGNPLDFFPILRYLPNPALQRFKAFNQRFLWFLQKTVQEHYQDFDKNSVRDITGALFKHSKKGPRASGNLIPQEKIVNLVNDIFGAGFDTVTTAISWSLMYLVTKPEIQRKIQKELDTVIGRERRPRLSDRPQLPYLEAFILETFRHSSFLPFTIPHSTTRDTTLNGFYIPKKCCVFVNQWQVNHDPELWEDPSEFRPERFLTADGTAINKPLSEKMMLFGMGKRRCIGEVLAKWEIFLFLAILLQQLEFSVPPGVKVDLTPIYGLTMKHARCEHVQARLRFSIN
Briefly: Metabolism in transgenic HEK293 cells expressing CYP1A2 (LC-MS/MS of supernatant). Particulars: for Quantification of metabolites generated from PCB28, 52, and 101: 20 µM parent PCB, 24 h, supernatant; for Metabolite concentration formed, range across cell clones: HEK293CYP1A2 cell clones, 20 µM PCB28, 24 h. The procedure: (§1) For the generation of transgenic cell lines, we used semi-adherent HEK293 cells (DSMZ, ACC305, human embryonic kidney cells) which were cultured on a daily basis in DMEM medium supplemented with 10% (FCS) and 1% penicillin/streptomycin. In a first step CYP1A2, CYP2C8, CYP2C9, CYP3A4, CYP2A6, and CYP2E1 cDNA were cloned into the plasmid pcDNATM3.1/V5-His TOPO® using human liver RNA as a template and using the following primers: CYP1A2 for5′-[…]-3′, CYP1A2 rev 5′-[…]-3′; CYP2C8 for 5′-[…]-3′, CYP2C8 rev 5′-[…]-3′; CYP2C9 for 5′-[…]-3′, CYP2C9 rev 5′-[…]-3′; CYP3A4 for 5′-[…]-3′, CYP3A4 rev 5′-[…]-3′, CYP2A6 for 5′-[…]-3′, CYP2A6 rev 5′-[…]-3′; CYP2E1 for 5′-[…]-3′, CYP2E1 rev 5′-[…]-3′. Final constructs were verified with Sanger DNA sequencing and restriction digestion. For transfection, 3 × 10^6 HEK293 cells were pre-incubated in a 10 cm dish in DMEM medium with 10% FCS, but without antibiotics, for 18 to 24 h. When the cells reached approximately 70% confluency, they were transfected using TransIT-LT1 transfection reagent (Biozol, Eiching, Germany). The TransIT-LT1 reagent was warmed to room temperature and vortexed. 1.63 mL Opti-MEM, 16.25 µL plasmid DNA (1 µg/µL), and 48.75 µL TransIT-LT1 reagent were mixed and incubated for 15 to 30 min. The mixture was then added dropwise to the medium of the cells, and the cells were incubated again at 37 °C and 5% CO2. After 24 h, the medium was replaced with standard medium and geneticin was added for selection (1 mg/mL). Cells were selected for 6–8 weeks in bulk culture, and single cell clones were obtained subsequently by limiting dilution. Each clone was checked for insertion by PCR using genomic DNA as a template.
(§2) Parallel samples were run without the addition of PCBs. At a confluence of 80%, PCBs (20 μM each, dissolved in ethanol) were added and cells were incubated for 24 h before harvest of supernatants. Supernatants were diluted 1:2 with 80 μL acetate buffer 0.1 M (pH = 5.3). 100 μL of this dilution were further incubated with 100 μL of ammonium acetate buffer 0.1 M (pH = 5.3) and 5 μL of β-Glucuronidase/Arylsulfatase enzyme overnight in a drying oven at 37 °C for enzymatic hydrolysis to release conjugated compounds. 50 μL of a mix of internal standards (10 ng/mL) and 600 μL of methanol were added to the samples, then mixed by vortexing for 1 min and centrifuged for 10 min at 3400g. The individual supernatants were transferred to glass LC vials and evaporated to approximately 50 μL at 45 °C under a gentle stream of nitrogen. Finally, 0.1 mol/ L ammonium acetate buffer was added to a final volume of 100 μL and then transferred to an insert for analysis.
(§3) HEK293 cells overexpressing the respective CYP enzymes were seeded onto 6-well plates and were treated with or without 10 µM of the respective probe drug in DMEM medium for 24 hours at 37 °C and 5 % CO2. After incubation 200 µL DMEM were collected, cells were washed with PBS and adherent cells were lysed in 500 µL methanol for 20 minutes. Analytes were measured by LC-MS/MS either in methanol cell lysates or in DMEM supernatant.
(§4) 50 µL of DMEM samples were protein precipitated by adding 200 µL of methanol and were centrifuged for 20 min, 17,000 g and 4°C. Supernatants were diluted in water or 40 % methanol according to dilution factor. Methanol cell lysates were diluted ½ with water and centrifuged for 20 min, 17,000 g and 4°C. 5 µL of the processed samples were injected for LC-MS analysis.

The target of a further data set is T2, CYP2A6 (Homo sapiens, UniProt P11509).
T2 sequence (P11509 1-494): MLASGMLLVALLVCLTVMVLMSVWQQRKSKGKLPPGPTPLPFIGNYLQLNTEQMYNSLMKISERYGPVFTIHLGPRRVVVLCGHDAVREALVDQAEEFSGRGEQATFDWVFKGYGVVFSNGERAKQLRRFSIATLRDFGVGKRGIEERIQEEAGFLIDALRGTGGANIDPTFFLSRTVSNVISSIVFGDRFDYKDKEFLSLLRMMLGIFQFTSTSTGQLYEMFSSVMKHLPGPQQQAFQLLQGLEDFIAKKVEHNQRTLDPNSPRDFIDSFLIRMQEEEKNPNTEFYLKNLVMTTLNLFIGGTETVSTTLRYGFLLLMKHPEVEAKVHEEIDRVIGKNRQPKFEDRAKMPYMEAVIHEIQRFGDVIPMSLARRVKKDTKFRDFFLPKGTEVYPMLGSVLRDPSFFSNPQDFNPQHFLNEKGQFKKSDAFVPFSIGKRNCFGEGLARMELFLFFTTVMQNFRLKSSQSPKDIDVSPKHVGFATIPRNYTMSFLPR
Briefly: Metabolism in transgenic HEK293 cells expressing CYP2A6. The format is in vitro ADME. Details: V5-His (vector-encoded) (C); expressed in transfected cells. The conditions noted are these: 20 µM parent PCB, 24 h; for Quantification of metabolites generated from PCB28, 52, and 101: supernatant. The procedure: as §1, §2, §3, §4

Another data set deals with CYP2E1 (Homo sapiens, UniProt P05181). Briefly: Metabolism in transgenic HEK293 cells expressing CYP2E1. The conditions noted are these: 20 µM parent PCB, 24 h, supernatant. The procedure: as §1, §2, §3, §4
Sequence of CYP2E1 (P05181 whole entry): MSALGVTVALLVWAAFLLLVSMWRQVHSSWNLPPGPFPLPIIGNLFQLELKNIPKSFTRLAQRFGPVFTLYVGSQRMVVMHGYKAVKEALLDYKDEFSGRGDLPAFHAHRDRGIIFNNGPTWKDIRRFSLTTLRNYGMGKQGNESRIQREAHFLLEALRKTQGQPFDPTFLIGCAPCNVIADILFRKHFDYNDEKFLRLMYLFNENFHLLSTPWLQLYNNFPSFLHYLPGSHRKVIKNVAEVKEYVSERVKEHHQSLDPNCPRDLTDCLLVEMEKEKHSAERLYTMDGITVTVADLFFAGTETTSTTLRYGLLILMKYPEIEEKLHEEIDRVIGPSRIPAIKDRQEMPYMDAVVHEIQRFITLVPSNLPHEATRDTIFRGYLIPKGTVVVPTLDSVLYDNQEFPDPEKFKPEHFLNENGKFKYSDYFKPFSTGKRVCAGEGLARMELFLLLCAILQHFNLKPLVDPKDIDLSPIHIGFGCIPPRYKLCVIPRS

SMILES strings stand for the structures. Values joined by “and” are separate entries in the source; they are usually repeats but may differ in a detail not shown here. Equal entries are not always repeated.

On to `Oc1cc(Cl)c(-c2ccc(Cl)cc2)cc1Cl` [4-OHCB31, 2,4′,5-trichloro-4-biphenylol], for which the “Quantification of metabolites generated from PCB28, 52, and 101” value (“Quantification of metabolites generated” for short) on CYP1A2 (CYP1A2, clone G5) is 0,69 nM; on CYP1A2 (CYP1A2, clone G8), 1,11 nM; at CYP2A6 (CYP2A6 Clone C4), 0,63 nM; on CYP2A6 (CYP2A6 Clone C5) it was 0,11 nM; at CYP2E1 (CYP2E1 Clone B4) it was “<LOQ”; at CYP2E1 (CYP2E1 Clone B5), “<LOQ”. Moreover, the “Quantification of metabolites generated” value at CYP2E1 (CYP2E1 Clone E6) was “<LOQ”. Besides, the “Metabolite concentration formed, range across cell clones” value at CYP1A2 was 0.19–0.30 µg/L and 0.69–1.11 nM; at CYP2A6 (HEK293CYP2A6 cell lines), 0.18–1.31 µg/L and 0.66–4.8 nM.

As for `Oc1cc(-c2ccc(Cl)cc2)c(Cl)cc1Cl` [5-OHCB28, 2,4,4′-trichloro-5-biphenylol], the “Quantification of metabolites generated” value at CYP1A2 (CYP1A2, clone G5) was 6,22 nM; on CYP1A2 (CYP1A2, clone G8), 9,07 nM; at CYP2A6 (CYP2A6 Clone B7) it was 1,84 nM; at CYP2A6 (CYP2A6 Clone C4), 1,33 nM; at CYP2A6 (CYP2A6 Clone C5) it was 0,22 nM; at CYP2E1 (CYP2E1 Clone B4) it was “<LOQ”. In addition, the “Quantification of metabolites generated” value on CYP2E1 (CYP2E1 Clone B5) and on CYP2E1 (CYP2E1 Clone E6) was “<LOQ” each time. Besides, the “Metabolite concentration formed, range across cell clones” value on CYP1A2 is 1.7–2.48 µg/L and 6.22–9.07 nM.
